Structures are written as SMILES.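 96-well plates; 48 h exposure; 5 concentrations. Endpoints by linear interpolation between flanking doses. Not reached: highest tested concentration assigned. Definition used: TGI = concentration required for complete inhibition of growth.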 Some results are limits rather than exact numbers.

What is called TGI is the concentration giving total growth inhibition. High values mean less potent growth arrest, low ones more potent growth arrest.

The first test deals with XF 498 CNS. Kind of test: DTP human tumour cell line panel, 48 h.
In turn, `CC(C)=Cc1cc(C(=O)Nc2ccc(Cl)c(Cl)c2)nc(N)n1` yielded a TGI above 100 µM.

Regarding `Cn1cnc([N+](=O)[O-])c1Sc1nc2ccccc2[nH]1`, the TGI stood at 18.5 µM.

`CC(=O)OC1COC(n2ccc3cc(Br)c([N+](=O)[O-])cc32)C(OC(C)=O)C1OC(C)=O` (stereo not given): the TGI amounted to 30.5 µM.

`CC(=O)OC1=CC(n2cc(F)c(=O)[nH]c2=O)OC(C)C1=O` (stereo not given) came in with a concentration for total growth inhibition (TGI) above 100 µM.

`CCOC(=O)NC(=O)c1cn(CCCO)c(=O)[nH]c1=O` yielded a TGI above 100 µM.

As to `CCc1cc(Cc2cc(CC)c(NC(=O)C(=O)Cc3ccccn3)c(CC)c2Cl)c(Cl)c(CC)c1NC(=O)C(=O)Cc1ccccn1`, the TGI is above 100 µM.

For the compound `C[Si](C)(C)C1(Sc2ccccc2)SCCCS1`, the TGI was above 100 µM.

For the compound `OCc1ccc(-c2ccc(-c3ccc(CO)s3)o2)s1`, the TGI came out at 0.356 µM.

In turn, `c1ccc(COc2cccc3ccc[n+](Cc4ccccc4)c23)cc1` displayed a TGI of 31.4 µM.

`CCOC(=O)C(=C=C=C(c1ccccc1)c1ccccc1)C(=O)OCC` displayed a TGI of 30.3 µM.

`CC(C)(C)OC(=O)N[C@H]1CC2(C=C(Cl)C(=O)C(Cl)=C2)OC1=O`: the TGI came to 34.5 µM.

For the compound `C/C(=N\NC(=S)NC(CCC(=O)O)C(=O)O)c1ccccn1` (stereo not given), the TGI is above 100 µM.

For `C#CC1(O)CCC2C3CCc4cc(Oc5nc(F)nc(-c6c7ccccc7c7sc8ccccc8n67)n5)ccc4C3CC[C@@]21C` (stereo not given in full), the TGI is above 100 µM.

Turning to `Cc1ccc(NC(=O)c2cc3cc(N=Nc4ccccc4C(=O)O)ccc3oc2=O)cc1`, the TGI came to 85.8 µM.

`COc1ccc(S(=O)(=O)NNS(C)(=O)=O)cc1` showed a TGI above 100 µM.

As to `CC(=O)/C(=C\c1cccc([N+](=O)[O-])c1)C(=O)Nc1ccccc1C`, the TGI is above 100 µM.

As to `CCN1c2ccccc2C(C(SC)S(=O)(=O)c2ccc(C)cc2)c2c1[nH]c(=O)n(C)c2=O` (stereo not given), the TGI was above 100 µM.

`COC(OC)C(C)CC(=O)N(C)C` (stereo not given) came in with a total growth inhibition concentration (TGI) above 100 µM.

The subject of another test is KM20L2 colon. The test is described as follows: DTP human tumour cell line panel, 48 h.
Regarding `O=c1cc(-c2ccccc2)oc2cc(OCCCOc3ccc4c(=O)cc(-c5ccccc5)oc4c3)ccc12`, the TGI is above 100 µM.

With `COc1cc2c(c(OC)c1OC)-c1ccc(OC)c(=O)cc1C(NC(=O)c1ccc(N=[N+]=[N-])cc1)CC2` (stereo not given), the TGI came to 0.0351 µM. This lies in the double-digit nanomolar range.

`Clc1ccc(C(c2ccc(Cl)cc2)c2ccccn2)cc1` yielded a TGI of 29.8 µM.

Take `CC(C)=Cc1cc(C(=O)Nc2ccc(Cl)c(Cl)c2)nc(N)n1`: the total growth inhibition concentration (TGI) was above 100 µM.

`Cn1cnc([N+](=O)[O-])c1Sc1nc2ccccc2[nH]1` registered a TGI of 61.5 µM.

For `CCCCCCN(CCCCCC)C(=O)Cc1c2n(c3ccccc13)Cc1ccccc1-2`, the concentration for total growth inhibition (TGI) was above 100 µM.

The compound `CCCCCCCCC/C=C1\CCC(CN2CCOCC2)C1=O` (stereo not given) registered a TGI of 20.5 µM. That is a double-digit micromolar value.

With `CC(=O)OC1COC(n2ccc3cc(Br)c([N+](=O)[O-])cc32)C(OC(C)=O)C1OC(C)=O` (stereo not given), the TGI is above 100 µM.

`CCOC(=O)NC(=O)c1cn(CCCO)c(=O)[nH]c1=O` gave a concentration for total growth inhibition (TGI) above 100 µM.

In turn, `CN(C)c1nc(=Nc2ccc(N=c3nc(N(C)C)ss3)cc2)ss1` showed a TGI above 100 µM.

The compound `CSc1nc(NC2OCC(OC(C)=O)C(OC(C)=O)C2OC(C)=O)c(N=CC=Nc2c(NC3OCC(OC(C)=O)C(OC(C)=O)C3OC(C)=O)nc(SC)[nH]c2=O)c(=O)[nH]1` (stereo not given) yielded a TGI above 100 µM.

The compound `CCc1cc(Cc2cc(CC)c(NC(=O)C(=O)Cc3ccccn3)c(CC)c2Cl)c(Cl)c(CC)c1NC(=O)C(=O)Cc1ccccn1` displayed a TGI above 100 µM.

In the case of `OCc1ccc(-c2ccc(-c3ccc(CO)s3)o2)s1`, the TGI turned out to be 1.19 µM.

As for `c1ccc(COc2cccc3ccc[n+](Cc4ccccc4)c23)cc1`, the concentration for total growth inhibition (TGI) worked out at 93.8 µM.

Compound `CCOC(=O)C(=C=C=C(c1ccccc1)c1ccccc1)C(=O)OCC` yielded a TGI of 45.2 µM. This TGI is about 2.1-fold lower than that of the compound before.

Regarding `CC1=CC(O)(c2ccc(-c3ccccc3Cl)cc2)OC1=O` (stereo not given), the TGI was above 100 µM.

The compound `CC(C)(C)OC(=O)N[C@H]1CC2(C=C(Cl)C(=O)C(Cl)=C2)OC1=O` had a TGI of 39.4 µM.

In the case of `C/C(=N\NC(=S)NC(CCC(=O)O)C(=O)O)c1ccccn1` (stereo not given), the total growth inhibition concentration (TGI) was above 100 µM.

`C#CC1(O)CCC2C3CCc4cc(Oc5nc(F)nc(-c6c7ccccc7c7sc8ccccc8n67)n5)ccc4C3CC[C@@]21C` (stereo not given in full) came in with a TGI above 100 µM.

For `Cc1ccc(NC(=O)c2cc3cc(N=Nc4ccccc4C(=O)O)ccc3oc2=O)cc1`, the TGI is above 100 µM.

The compound `COc1ccc(S(=O)(=O)NNS(C)(=O)=O)cc1` came in with a TGI above 100 µM.

In turn, `O=C(/C=C\c1ccc(Cl)c(Cl)c1)c1ccc(Cl)cc1Cl` showed a TGI of 28 µM.

`CC(=O)/C(=C\c1cccc([N+](=O)[O-])c1)C(=O)Nc1ccccc1C`: the TGI was above 100 µM.

`COC(OC)C(C)CC(=O)N(C)C` (stereo not given) showed a TGI above 100 µM.

A further test has as its system SNB-78 CNS. The test is described as follows: DTP human tumour cell line panel, 48 h.
As to `O=c1cc(-c2ccccc2)oc2cc(OCCCOc3ccc4c(=O)cc(-c5ccccc5)oc4c3)ccc12`, the TGI was above 100 µM.

Consider `COc1cc2c(c(OC)c1OC)-c1ccc(OC)c(=O)cc1C(NC(=O)c1ccc(N=[N+]=[N-])cc1)CC2` (stereo not given), for which the total growth inhibition concentration (TGI) is above 100 µM.

`Clc1ccc(C(c2ccc(Cl)cc2)c2ccccn2)cc1` had a TGI above 100 µM.

Regarding `CC(C)=Cc1cc(C(=O)Nc2ccc(Cl)c(Cl)c2)nc(N)n1`, the concentration for total growth inhibition (TGI) is above 100 µM.

With `Cn1cnc([N+](=O)[O-])c1Sc1nc2ccccc2[nH]1`, the TGI was found to be 88 µM.

Turning to `CCCCCCN(CCCCCC)C(=O)Cc1c2n(c3ccccc13)Cc1ccccc1-2`, the concentration for total growth inhibition (TGI) was above 100 µM.

Turning to `CCCCCCCCC/C=C1\CCC(CN2CCOCC2)C1=O` (stereo not given), the TGI was 15.3 µM. That is a double-digit micromolar value.

Take `CC(=O)OC1COC(n2ccc3cc(Br)c([N+](=O)[O-])cc32)C(OC(C)=O)C1OC(C)=O` (stereo not given): the TGI turned out to be 84.6 µM. This TGI is about 5.5-fold higher than that of the compound before.

In turn, `CC(=O)OC1=CC(n2cc(F)c(=O)[nH]c2=O)OC(C)C1=O` (stereo not given) yielded a TGI above 100 µM.

In the case of `CCOC(=O)NC(=O)c1cn(CCCO)c(=O)[nH]c1=O`, the TGI was above 100 µM.

`CN(C)c1nc(=Nc2ccc(N=c3nc(N(C)C)ss3)cc2)ss1` displayed a TGI of 38.5 µM. This lies in the double-digit micromolar range.

Regarding `CSc1nc(NC2OCC(OC(C)=O)C(OC(C)=O)C2OC(C)=O)c(N=CC=Nc2c(NC3OCC(OC(C)=O)C(OC(C)=O)C3OC(C)=O)nc(SC)[nH]c2=O)c(=O)[nH]1` (stereo not given), the TGI was above 100 µM.

`CCc1cc(Cc2cc(CC)c(NC(=O)C(=O)Cc3ccccn3)c(CC)c2Cl)c(Cl)c(CC)c1NC(=O)C(=O)Cc1ccccn1` displayed a TGI above 100 µM.

As to `C[Si](C)(C)C1(Sc2ccccc2)SCCCS1`, the TGI was above 100 µM.

Consider `O=S1(=O)OCCOS(=O)(=O)C1Br`, for which the TGI is above 100 µM.

Consider `CCOC(=O)C(=C=C=C(c1ccccc1)c1ccccc1)C(=O)OCC`, for which the concentration for total growth inhibition (TGI) amounted to 37 µM.

`CC(C)(C)OC(=O)N[C@H]1CC2(C=C(Cl)C(=O)C(Cl)=C2)OC1=O` gave a TGI of 40 µM.

The compound `C/C(=N\NC(=S)NC(CCC(=O)O)C(=O)O)c1ccccn1` (stereo not given) returned a TGI above 100 µM.

`CC(=O)/C(=C\c1cccc([N+](=O)[O-])c1)C(=O)Nc1ccccc1C` gave a total growth inhibition concentration (TGI) above 100 µM.

The compound `CCN1c2ccccc2C(C(SC)S(=O)(=O)c2ccc(C)cc2)c2c1[nH]c(=O)n(C)c2=O` (stereo not given) yielded a TGI above 100 µM.

As for `COC(OC)C(C)CC(=O)N(C)C` (stereo not given), the TGI is above 100 µM.

In a further test the test system is M19-MEL melanoma. The test is described as follows: DTP human tumour cell line panel, 48 h.
In the case of `O=c1cc(-c2ccccc2)oc2cc(OCCCOc3ccc4c(=O)cc(-c5ccccc5)oc4c3)ccc12`, the concentration for total growth inhibition (TGI) is above 100 µM.

Consider `COc1cc2c(c(OC)c1OC)-c1ccc(OC)c(=O)cc1C(NC(=O)c1ccc(N=[N+]=[N-])cc1)CC2` (stereo not given), for which the TGI was above 73.2 µM.

For the compound `Clc1ccc(C(c2ccc(Cl)cc2)c2ccccn2)cc1`, the TGI is above 100 µM.

As to `CC(C)=Cc1cc(C(=O)Nc2ccc(Cl)c(Cl)c2)nc(N)n1`, the TGI is above 100 µM.

`Cn1cnc([N+](=O)[O-])c1Sc1nc2ccccc2[nH]1` returned a TGI of 29.7 µM. In other words, the double-digit micromolar range.

In turn, `CCCCCCN(CCCCCC)C(=O)Cc1c2n(c3ccccc13)Cc1ccccc1-2` had a TGI above 100 µM.

With `CCCCCCCCC/C=C1\CCC(CN2CCOCC2)C1=O` (stereo not given), the TGI is 10.4 µM.

`CC(=O)OC1COC(n2ccc3cc(Br)c([N+](=O)[O-])cc32)C(OC(C)=O)C1OC(C)=O` (stereo not given): the concentration for total growth inhibition (TGI) is above 100 µM.

On to `CC(=O)OC1=CC(n2cc(F)c(=O)[nH]c2=O)OC(C)C1=O` (stereo not given), for which the TGI was above 100 µM.

Compound `CCOC(=O)NC(=O)c1cn(CCCO)c(=O)[nH]c1=O` showed a TGI above 100 µM.

`CN(C)c1nc(=Nc2ccc(N=c3nc(N(C)C)ss3)cc2)ss1` registered a concentration for total growth inhibition (TGI) of 40.1 µM. This counts as double-digit micromolar.

Take `CSc1nc(NC2OCC(OC(C)=O)C(OC(C)=O)C2OC(C)=O)c(N=CC=Nc2c(NC3OCC(OC(C)=O)C(OC(C)=O)C3OC(C)=O)nc(SC)[nH]c2=O)c(=O)[nH]1` (stereo not given): the TGI is above 100 µM.

The compound `CCc1cc(Cc2cc(CC)c(NC(=O)C(=O)Cc3ccccn3)c(CC)c2Cl)c(Cl)c(CC)c1NC(=O)C(=O)Cc1ccccn1` showed a TGI above 100 µM.

On to `C[Si](C)(C)C1(Sc2ccccc2)SCCCS1`, for which the concentration for total growth inhibition (TGI) was above 100 µM.

The compound `OCc1ccc(-c2ccc(-c3ccc(CO)s3)o2)s1` yielded a TGI above 100 µM.

Take `c1ccc(COc2cccc3ccc[n+](Cc4ccccc4)c23)cc1`: the TGI was found to be 16.3 µM.

As to `O=S1(=O)OCCOS(=O)(=O)C1Br`, the TGI was above 100 µM.

With `CCOC(=O)C(=C=C=C(c1ccccc1)c1ccccc1)C(=O)OCC`, the TGI came out at 37.7 µM.

With `CC1=CC(O)(c2ccc(-c3ccccc3Cl)cc2)OC1=O` (stereo not given), the TGI was above 100 µM.

`CC(C)(C)OC(=O)N[C@H]1CC2(C=C(Cl)C(=O)C(Cl)=C2)OC1=O` came in with a TGI of 30.9 µM.

As for `C/C(=N\NC(=S)NC(CCC(=O)O)C(=O)O)c1ccccn1` (stereo not given), the concentration for total growth inhibition (TGI) was above 100 µM.

As for `C#CC1(O)CCC2C3CCc4cc(Oc5nc(F)nc(-c6c7ccccc7c7sc8ccccc8n67)n5)ccc4C3CC[C@@]21C` (stereo not given in full), the TGI was above 100 µM.

`COc1ccc(S(=O)(=O)NNS(C)(=O)=O)cc1` came in with a TGI above 100 µM.

Compound `O=C(/C=C\c1ccc(Cl)c(Cl)c1)c1ccc(Cl)cc1Cl` showed a TGI of 81.1 µM.

Compound `CC(=O)/C(=C\c1cccc([N+](=O)[O-])c1)C(=O)Nc1ccccc1C` had a TGI above 100 µM.

`CCN1c2ccccc2C(C(SC)S(=O)(=O)c2ccc(C)cc2)c2c1[nH]c(=O)n(C)c2=O` (stereo not given) gave a TGI above 100 µM.

For `COC(OC)C(C)CC(=O)N(C)C` (stereo not given), the concentration for total growth inhibition (TGI) is above 100 µM.

The values are drawn from PubChem BioAssay (NCI).
